Results on 1 substance are retold here after patent publication US20120214736A1, “COMPOSITIONS AND METHODS FOR THE MODULATION OF JNK PROTEINS” (Isis Pharmaceuticals, Inc., priority 2006, published 2012).

Holding throughout (type): cell-based
Data set [1] has as its system human JNK2 mRNA. As to the kind of experiment: Northern analysis, human JNK2 mRNA in Jurkat cells (electroporation, dose response). To be noted: 1, 5 or 20 uM. As to the method: Jurkat cells were routinely cultured in RPMI Medium 1640 (Gibco/Life Technologies, Gaithersburg, Md.) supplemented with 20% fetal calf serum (Gibco/Life Technologies, Gaithersburg, Md.). Cells were routinely passaged by aspirating media that contained excess cells and replenishing with new media.
For electroporation, cells were diluted to 28×10^6 cells/mL and placed into 1 mm electroporation cuvettes. Electroporation is performed by treating with 1-20 μM oligonucleotide, at 160 Volts for 6 msec. The entire electroporated samples are then placed into 5 mL of 10% FBS/RPMI Medium 1640 in 100 mm plates. Plates are then left overnight at 37° C./5% CO2.
Each sample is then transferred to 15 mL conical tubes and spun down at 1200 rpm for 5 minutes followed by aspiration of the supernatant. Cells are then suspended in 5 mL PBS followed by a second centrifugation at 1200 rpm for 5 minutes followed by aspiration of the supernatant. Cells are then washed and lysed. Following the lysis step, total cellular RNA is then isolated using the RNEASY kit (Qiagen, Santa Clarita, Calif.) as described in other examples herein.
In accordance with the present invention, Jurkat cells were treated by electroporation with 1, 5 or 20 uM ISIS 101759 or the control oligonucleotide and mRNA levels of human JNK2 were quantitated by Northern analysis.

The test system of data set [2] is human JNK2 mRNA. Briefly: Northern analysis, human JNK2 mRNA in HeLa cells (dose response). As to conditions: 10, 50 or 200 nM. The method, then: The human cervix epithelial adenocarcinoma cell line HeLa was obtained from the American Type Culture Collection (Manassas, Va.). HeLa cells were routinely cultured in Minimum essential medium (Eagle) with 2 mM L-glutamine and Earle's BSS adjusted to contain 1.5 g/L sodium bicarbonate, 0.1 mM non-essential amino acids, and 1.0 mM sodium pyruvate, 90%; fetal bovine serum, 10% at a temperature of 37° C. Cells were seeded into 100 mm dishes and incubated overnight at 37° C./5% CO2
(§1) When cells reached 70% confluency, they were treated with oligonucleotide. For cells grown in 10 cm dishes, cells were washed once with 5 ml PBS and then treated with 5 ml of OPTI-MEM-1 containing 3 ul LIPOFECTIN (Invitrogen Corporation, Carlsbad, Calif.)/100 nM oligonucleotide/ml OPTI-MEM-1. For other oligonucleotide concentrations the oligonucleotide/Lipofectin ration was held constant. […] Cells were harvested 16-24 hours after oligonucleotide treatment.
In accordance with the present invention, HeLa cells were treated with 10, 50 or 200 nM ISIS 101759 or the control oligonucleotide and mRNA levels of human JNK2 were quantitated by Northern analysis.

The test system of data set [3] is human JNK2 mRNA. Briefly: Northern analysis, human JNK2 mRNA in HuVEC cells (time course). To be noted: 100 nM; 0-72 hours. The method, then: The human umbilical vein endothilial cell line HuVEC was obtained from Clonetics (Clonetics Corporation Walkersville, Md.). HuVEC cells were routinely cultured in EBM (Clonetics Corporation Walkersville, Md.) supplemented with SingleQuots supplements (Clonetics Corporation, Walkersville, Md.). […] Cells were seeded into 100 mm dishes and incubated overnight at 37° C./5% CO2. (Falcon-Primaria #3872).
as §1
In accordance with the present invention, HuVEC cells were treated with 100 nM ISIS 101759 or the control oligonucleotide and mRNA levels of human JNK2 were monitored over a time-course of 0-72 hours and quantitated by Northern analysis.

e = 2'-O-(2-methoxyethyl) (MOE); d = 2'-deoxy (DNA)

With “GsCsTsCsAsGsTsGsGsAsCsAsTsGsGsAsTsGsAsG (GCTCAGTGGACATGGATGAG; sugars from the 5' end e5 d10 e5, all phosphorothioate, methylation of C not given here) [ISIS 101759]”, the “expression of human JNK2 in Jurkat cells” value with human JNK2 mRNA [1] is recorded as “capable of reducing the expression of human JNK2 in human Jurkat cells in a dose-dependent manner”. Further, the “expression of human JNK2 in HeLa cells” value in the data set on human JNK2 mRNA [2] was “capable of reducing the expression of human JNK2 in human HeLa cells in a dose-dependent manner”. Further, the “expression of human JNK2 in HuVEC cells” value in the data set on human JNK2 mRNA [3] is “capable of reducing the expression of human JNK2”.
